Test results taken from patent US20220305048A1, “USE OF HEPARIN TO PROMOTE TYPE 1 INTERFERON SIGNALING” (Dana-Farber Cancer Institute, Inc., priority 2019, published 2022).

Columns and labels:
[1] = system: 631M/RPPM mouse SCLC cells; experiment: CXCL10 ELISA of conditioned media, STING agonists +/- heparins; assay type: cell-based; settings: for interaction between heparin and STING agonist (CXCL10 ELISA): 24 hours, p<0.0001 by 2-WAY ANOVA (FIG. 3C); for interaction between heparin and STING agonist on the amount of CXCL10 in the media: +/- 1 μg/mL heparin, 1 or 10 μg/mL cGAMP, 50 μM ADU, 0.2 mg/ml CMA, 24 hours (FIG. 3A)
Experimental: (§1) 1 mL of conditioned media from each treatment plate was collected after 24 hr culture unless otherwise specified. The collected media was centrifuged at 1400 RPM for 3 minutes to remove any cellular debris before use in the ELISA. Values represent the average of at least two independent biological replicates.

[2] = system: BEN-MEN-1 meningioma cells; experiment: CXCL10 ELISA of conditioned media, ADU S-100 dose and time course +/- heparin; assay type: cell-based; settings: 50 μg/mL and 100 μg/mL ADU-S100, heparin 10 μg/mL, 24 hours
Experimental: FIGS. 3A to 3B include plots showing that heparin dose-dependently enhances STING agonist effects across compounds. […] FIG. 3D includes a plot of showing the time course data for BenMen 1 cells with treatment for 3 and 6 days. The data reflects 24 hours treatment prior to collection of conditioned media for CXCL10 ELISA FIG. 3E includes plots showing RPPM mouse SCLC cells treated with 1 μg/mL 2,3-cGAMP and 1 μg/mL unfractionated heparin, low-molecular weight heparin (LMWH), heparin pentasaccharide fondaparinux, 6-desulfated heparin, chondroitin sulfate (CS)+/−the Janus kinase/signal transducers and activators of transcription (JAK/STAT) inhibitor ruxolitinib (ruxo 1 μg/mL) for 24 hours prior to CXCL10 ELISA. H69M human SCLC cells treated with 10 μg/mL 2,3-cGAMP+/−heparin 10 μg/mL or desulfated heparins 2-O desulfated (2DES), N-desulfated (NDES), and 6-O desulfated (6DES) 24 hours prior to CXCL10 ELISA. All panels reflect 24 hours treatment prior to collection of conditioned media for CXCL10 ELISA.
A 24-hour dose response study was also conducted on BEN-MEN-1 meningioma cells (hereafter “BenMen 1 cells”) and RPPM mouse SCLC cells. BenMen 1 cells were treated with various doses of ADU S-100 (0, 10, 20, 30, 50, and 100 μg/mL) either in the presence or absence of heparin (10 μg/mL). […]

[3] = system: BenMen 1 cells; RPPM mouse SCLC and MS428 human mesothelioma cell lines; experiment: STING pathway western blot and CXCL10 ELISA with TBK1 or JAK/STAT inhibitor; assay type: cell-based; settings: MRT TBK1 inhibitor 1 μM or 5 μM; ruxolitinib 1 μM
Experimental: FIG. 4A includes immunofluorescent images of fixed hLFB cells after 24 hours of treatment with cyanine-5 (Cy5) labeled 2,3-cGAMP 1 μg/mL+/−heparin 1 μg/mL. The staining represents actin phalloidin, DAPI (4′,6-diamidino-2-phenylindole), and Cy5-labeled cGAMP. FIG. 4B includes a western blot for STING pathway components in BEN-MEN-1 meningioma cells treated for 72 hours with 50 μM ADU+/−heparin 10 μg/mL and MRT TANK-binding kinase-1 (TBK1) inhibitor 5 μM. FIG. 4C includes plots showing CXCL10 ELISA after 24 hours treatment with 2,3-cGAMP (1 μg/mL) or ADU S-100 (50 μM unless otherwise indicated)+/−heparin (1 μg/mL in RPPM or 10 μg/mL in MS428), MRT TBK1 inhibitor 1 μM, or ruxolitinib JAK/STAT inhibitor (“ruxo”; ruxolitinib) 1 μM in RPPM mouse SCLC and MS428 human mesothelioma cell lines. FIG. 4D includes a plot showing the qPCR for Programmed death-ligand 1 (PD-L1) after 24 hours treatment 50 μM ADU+/−heparin 10 μg/mL and MRT TBK1 inhibitor in BEN-MEN-1 meningioma cells. ANOVA p<0.001 for all graphs. *p<0.05 ****p<0.0001 by Bonferroni corrected pairwise comparison.
The serine/threonine protein kinase, TBK1, is a critical regulator in innate immune signaling pathways that lead to the induction of type I interferon (IFN) and interferon-stimulated genes (ISGs). Dysregulation of TBK1 activity is often associated with autoimmune diseases and cancer. […]

[4] = system: H196 SCLC and MS428 meningioma cells; experiment: Luminex cytokine array; assay type: cell-based, human; settings: 5 μM MRT TBK1 inhibitor
Experimental: FIGS. 19A to 19B includes diagrams showing that heparin alters the release of multiple cytokines after STING agonist treatment. […] L2FC=LOG2 fold change.
The influence of heparin (with and without a STING agonist) on IL-6 and IL-8 levels was examined. […] This effect was reversed by MRT TBK1 inhibitor.
Multiplex assays were performed utilizing the Human Cytokine/Chemokine Maganetic Bead Panel (Cat. #HCYTMAG-60K-PX30) on a Luminex MAGPIX system (Merck Millipore). Conditioned media concentrations (pg/ml) for each cytokine were derived from parameter curve fitting models. Fold changes relative to the corresponding control were calculated and plotted as log 2FC.

[5] = system: B16F10 mouse melanoma cells; Lewis Lung Carcinoma (LLC) mouse non-small-cell lung cancer cells; experiment: CXCL10 ELISA of conditioned media, interferons +/- heparin; assay type: cell-based; settings: interferon 5 ng/mL +/- heparin 1 μg/mL, 24 hours
Experimental: as §1

[6] = system: Human lung fibroblasts (hLFB); experiment: CXCL10 qPCR, 2,3-cGAMP +/- heparin; assay type: cell-based; settings: 2,3-cGAMP 1 μg/mL, 24 hours
Experimental: FIG. 2 includes plots showing that heparin enhances STING agonist activity. FIG. 2A includes plots showing human lung fibroblasts (hLFB) and H69-mesenchymal (H69M) small cell lung cancer (SCLC) cells treated with 2,3-cGAMP 1 μg/mL+/−heparin 1 μg/mL for 24 hours prior to CXCL10 qPCR and collection of conditioned media for C—X—C motif chemokine 10 (CXCL10) ELISA (enzyme-linked immunosorbent assay). […] THP1=differentiated macrophages. hLFB=human lung fibroblasts. MEF=mouse embryonic fibroblasts. HUE=human umbilical endothelial cells. ANOVA p<0.001 for all figures. *p<0.05 ****p<0.0001 by Bonferroni corrected pairwise comparison.
Also, Human lung fibroblasts (hLFB) were treated with 2,3-cGAMP 1 μg/mL (hereafter referred to as “cGAMP)+/−heparin 1 μg/mL for 24 hours prior to CXCL10 qPCR and collection of conditioned media for CXCL10 ELISA (FIG. 2A).
RNA extraction was performed using the RNeasy Mini Kit (Qiagen, Cat. #74106). RNA samples (1000 ng) were reverse-transcribed into cDNA using Superscript® First-Strand Synthesis SuperMix (Thermo Fisher Scientific, Cat. #1683483). Quantitative real-time PCR was then performed using Power SYBR Green PCR Master Mix (Thermo Fisher Scientific, Cat. #4367659). The sequences of the primers used for qRT-PCR were obtained from previously published literature. Error bars represent technical replicates of each experiment.

Nc1ncnc2c1ncn2[C@@H]1O[C@@H]2CO[P@](=O)(S)O[C@@H]3C(O)[C@@H](CO[P@@](=O)(S)O[C@H]2[C@H]1O)O[C@H]3n1cnc2c(N)ncnc21 (stereo partly drawn) [ADU-S100]
interaction between heparin and STING agonist (CXCL10 ELISA) [1]: significant interaction | interaction between heparin and STING agonist on the amount of CXCL10 in the media [1]: significant interaction | STING activity (CXCL10 concentration) in the presence vs absence of heparin [2]: significantly higher STING activity

O=C(NCCCNc1nc(Nc2cccc(CN3CCOCC3)c2)ncc1C1CC1)C1CCC1 [MRT TBK1 inhibitor, MRT67307]
STING activity after addition of inhibitor to heparin and ADU [3]: reduced the STING activity | effect of heparin plus ADU on cytokines after TBK1 inhibitor [4]: reversed

IFNg: interferon gamma (R&D systems)
amount of CXCL10 in the media with heparin compared to interferon alone [5]: not seen

cyclic GMP-AMP [cGAMP]
interaction between heparin and STING agonist (CXCL10 ELISA) [1]: significant interaction | interaction between heparin and STING agonist on the amount of CXCL10 in the media [1]: significant interaction | STING activity (CXCL10 expression, qPCR), cGAMP in the absence of heparin [6]: negligible STING activity
